{"source": "ChEMBL document CHEMBL2401646", "about": "(Bioorg Med Chem Lett, 2013)", "key": {"[1]": {"test": "Antitumor activity against human U87MG cells xenografted in nu/nu CD1 mouse model assessed as maximum tumor regression at 200 mg/kg, po qd for 14 days", "assay_type": "functional, U-87MG ATCC"}, "[2]": {"system": "SNU-5", "test": "Antitumor activity against human SNU5 cells xenografted in nu/nu CD1 mouse model assessed as tumor growth inhibition at 200 mg/kg, po qd for 20 days", "settings": "SNU-5, po, 480 h, read-out: TGI"}, "[3]": {"test": "Solubility of the compound at pH 4.5", "assay_type": "physicochemical", "settings": "buffer"}, "[4]": {"system": "Mus musculus", "test": "Toxicity in human U87MG cells xenografted nu/nu CD1 mouse model assessed as body weigh loss at 100 mg/kg, po bid for 14 days", "assay_type": "organism-based, U-87MG ATCC", "design": "dose 100 mg/kg, route oral", "settings": "in vivo, 336 h"}, "[5]": {"test": "Protein binding in human plasma by equilibrium dialysis", "assay_type": "ADME, cell-free", "settings": "read-out: PPB (converted)"}, "[6]": {"system": "Mus musculus", "test": "Toxicity in human U87MG cells xenografted nu/nu CD1 mouse model assessed as body weigh loss at 50 mg/kg, po bid for 14 days", "assay_type": "organism-based, U-87MG ATCC", "design": "dose 50 mg/kg, route oral", "settings": "in vivo, 336 h"}, "[7]": {"target": "Hepatocyte growth factor receptor (Homo sapiens, UniProt P08581, Y1230C)", "sequence (P08581 25-1390 Y1230C limits assumed)": "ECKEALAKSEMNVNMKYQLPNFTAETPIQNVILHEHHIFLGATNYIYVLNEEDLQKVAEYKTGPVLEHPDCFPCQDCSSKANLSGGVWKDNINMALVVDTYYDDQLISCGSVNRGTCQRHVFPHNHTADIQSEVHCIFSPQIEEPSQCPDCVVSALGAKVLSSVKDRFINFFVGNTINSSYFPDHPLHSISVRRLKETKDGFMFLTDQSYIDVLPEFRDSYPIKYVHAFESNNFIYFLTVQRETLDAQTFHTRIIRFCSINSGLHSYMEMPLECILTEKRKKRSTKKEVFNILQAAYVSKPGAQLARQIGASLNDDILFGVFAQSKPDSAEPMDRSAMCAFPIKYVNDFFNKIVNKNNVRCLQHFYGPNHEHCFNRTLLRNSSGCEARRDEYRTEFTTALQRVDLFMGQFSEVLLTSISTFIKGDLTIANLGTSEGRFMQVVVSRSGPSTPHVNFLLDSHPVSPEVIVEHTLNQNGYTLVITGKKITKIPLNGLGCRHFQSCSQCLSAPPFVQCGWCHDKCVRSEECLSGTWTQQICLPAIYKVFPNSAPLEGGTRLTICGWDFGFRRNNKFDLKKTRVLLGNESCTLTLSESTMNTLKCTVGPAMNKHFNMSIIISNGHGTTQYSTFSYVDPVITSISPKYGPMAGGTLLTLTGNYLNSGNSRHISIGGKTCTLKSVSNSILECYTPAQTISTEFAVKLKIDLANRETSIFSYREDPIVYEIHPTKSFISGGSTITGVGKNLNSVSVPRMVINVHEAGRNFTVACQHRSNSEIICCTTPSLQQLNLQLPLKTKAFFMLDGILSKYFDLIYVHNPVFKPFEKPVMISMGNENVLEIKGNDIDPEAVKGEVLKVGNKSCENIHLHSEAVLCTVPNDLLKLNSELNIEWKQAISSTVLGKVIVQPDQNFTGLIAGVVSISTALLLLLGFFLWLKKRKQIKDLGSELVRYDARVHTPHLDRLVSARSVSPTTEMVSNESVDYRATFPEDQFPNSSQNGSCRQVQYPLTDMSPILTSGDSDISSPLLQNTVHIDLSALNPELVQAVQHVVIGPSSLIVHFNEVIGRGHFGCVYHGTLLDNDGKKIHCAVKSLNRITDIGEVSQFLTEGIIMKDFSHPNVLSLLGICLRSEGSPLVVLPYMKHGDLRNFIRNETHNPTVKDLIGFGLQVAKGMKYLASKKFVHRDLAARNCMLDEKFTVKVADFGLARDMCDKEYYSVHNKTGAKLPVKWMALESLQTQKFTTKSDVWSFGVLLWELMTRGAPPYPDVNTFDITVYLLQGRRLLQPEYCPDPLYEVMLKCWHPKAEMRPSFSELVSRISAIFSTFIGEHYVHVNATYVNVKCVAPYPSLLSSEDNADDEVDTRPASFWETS", "test": "Inhibition of cMET Y1230C mutant (unknown origin) autophosphorylation"}, "[8]": {"test": "AUC (0 to last) in Sprague-Dawley rat at 20 mg/kg, po", "assay_type": "ADME, organism-based", "design": "time 0 - last, dose 20 mg/kg, route oral", "settings": "plasma"}, "[9]": {"test": "Cmax in Sprague-Dawley rat at 20 mg/kg, po", "assay_type": "ADME, organism-based", "design": "dose 20 mg/kg, route oral", "settings": "in vivo"}, "[10]": {"system": "MKN-45", "test": "Antiproliferative activity against human MKN45 cells after 3 days by CellTiter-Glo assay", "assay_type": "functional, cell-based", "settings": "MKN-45, 72 h"}, "[11]": {"test": "Antitumor activity against human U87MG cells xenografted in nu/nu CD1 mouse model assessed as maximum tumor regression at 50 mg/kg, po bid for 14 days", "assay_type": "functional, U-87MG ATCC"}, "[12]": {"system": "Mus musculus", "test": "Toxicity in human SNU5 cells xenografted nu/nu CD1 mouse model assessed as body weigh loss at 50 mg/kg, po qd for 20 days", "settings": "in vivo, 480 h"}, "[13]": {"system": "MKN-45", "test": "Antitumor activity against human MKN45 cells xenografted in po dosed nu/nu CD1 mouse model assessed as tumor growth inhibition administered qd for 14 days", "assay_type": "functional", "settings": "MKN-45, po, 336 h"}, "[14]": {"system": "SNU-5", "test": "Antitumor activity against human SNU5 cells xenografted in nu/nu CD1 mouse model assessed as tumor growth inhibition at 100 mg/kg, po qd for 20 days", "settings": "SNU-5, po, 480 h, read-out: TGI"}, "[15]": {"test": "Clearance in Sprague-Dawley rat at 2 mg/kg, iv", "assay_type": "ADME, organism-based", "design": "dose 2 mg/kg, route intravenous", "settings": "in vivo"}, "[16]": {"system": "Mus musculus", "test": "Inhibition of MET autophosphorylation at Y1234/1235 in human MKN45 cells xenografted in mouse at 100 mg/kg, po after 24 hrs", "assay_type": "functional", "settings": "MKN-45, 24 h"}, "[17]": {"test": "Solubility of the compound at pH 3", "assay_type": "physicochemical", "settings": "buffer"}, "[18]": {"test": "Metabolic stability in mouse liver microsomes assessed as extraction ratio up to 40 mins by LC-MS/MS analysis", "assay_type": "ADME, Microsome", "settings": "read-out: ERH"}, "[19]": {"system": "Salmonella typhimurium", "test": "Mutagenic activity in Salmonella typhimurium TA100 by Ames test in presence of liver S9 fraction", "assay_type": "toxicity, organism-based", "settings": "salmonella enterica subsp. enterica serovar typhimurium"}, "[20]": {"target": "T1, Aurora kinase B (Homo sapiens, UniProt Q96GD4)", "T1 sequence (Q96GD4 whole entry)": "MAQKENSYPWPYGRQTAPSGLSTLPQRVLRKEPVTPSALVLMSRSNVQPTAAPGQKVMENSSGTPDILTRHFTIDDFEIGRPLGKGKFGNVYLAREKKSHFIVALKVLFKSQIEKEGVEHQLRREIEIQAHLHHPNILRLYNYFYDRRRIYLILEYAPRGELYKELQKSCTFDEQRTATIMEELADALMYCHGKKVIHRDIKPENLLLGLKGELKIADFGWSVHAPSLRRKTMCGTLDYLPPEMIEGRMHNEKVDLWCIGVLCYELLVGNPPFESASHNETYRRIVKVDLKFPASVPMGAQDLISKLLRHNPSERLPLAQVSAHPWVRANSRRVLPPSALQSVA", "test": "Inhibition of aurora-B in human HT-29 cells assessed as phosphorylation of histone H3 at Ser10 in presence of mouse plasma", "assay_type": "cell-based"}, "[21]": {"target": "Hepatocyte growth factor receptor (Homo sapiens, UniProt P08581, Y1230H)", "sequence (P08581 25-1390 Y1230H limits assumed)": "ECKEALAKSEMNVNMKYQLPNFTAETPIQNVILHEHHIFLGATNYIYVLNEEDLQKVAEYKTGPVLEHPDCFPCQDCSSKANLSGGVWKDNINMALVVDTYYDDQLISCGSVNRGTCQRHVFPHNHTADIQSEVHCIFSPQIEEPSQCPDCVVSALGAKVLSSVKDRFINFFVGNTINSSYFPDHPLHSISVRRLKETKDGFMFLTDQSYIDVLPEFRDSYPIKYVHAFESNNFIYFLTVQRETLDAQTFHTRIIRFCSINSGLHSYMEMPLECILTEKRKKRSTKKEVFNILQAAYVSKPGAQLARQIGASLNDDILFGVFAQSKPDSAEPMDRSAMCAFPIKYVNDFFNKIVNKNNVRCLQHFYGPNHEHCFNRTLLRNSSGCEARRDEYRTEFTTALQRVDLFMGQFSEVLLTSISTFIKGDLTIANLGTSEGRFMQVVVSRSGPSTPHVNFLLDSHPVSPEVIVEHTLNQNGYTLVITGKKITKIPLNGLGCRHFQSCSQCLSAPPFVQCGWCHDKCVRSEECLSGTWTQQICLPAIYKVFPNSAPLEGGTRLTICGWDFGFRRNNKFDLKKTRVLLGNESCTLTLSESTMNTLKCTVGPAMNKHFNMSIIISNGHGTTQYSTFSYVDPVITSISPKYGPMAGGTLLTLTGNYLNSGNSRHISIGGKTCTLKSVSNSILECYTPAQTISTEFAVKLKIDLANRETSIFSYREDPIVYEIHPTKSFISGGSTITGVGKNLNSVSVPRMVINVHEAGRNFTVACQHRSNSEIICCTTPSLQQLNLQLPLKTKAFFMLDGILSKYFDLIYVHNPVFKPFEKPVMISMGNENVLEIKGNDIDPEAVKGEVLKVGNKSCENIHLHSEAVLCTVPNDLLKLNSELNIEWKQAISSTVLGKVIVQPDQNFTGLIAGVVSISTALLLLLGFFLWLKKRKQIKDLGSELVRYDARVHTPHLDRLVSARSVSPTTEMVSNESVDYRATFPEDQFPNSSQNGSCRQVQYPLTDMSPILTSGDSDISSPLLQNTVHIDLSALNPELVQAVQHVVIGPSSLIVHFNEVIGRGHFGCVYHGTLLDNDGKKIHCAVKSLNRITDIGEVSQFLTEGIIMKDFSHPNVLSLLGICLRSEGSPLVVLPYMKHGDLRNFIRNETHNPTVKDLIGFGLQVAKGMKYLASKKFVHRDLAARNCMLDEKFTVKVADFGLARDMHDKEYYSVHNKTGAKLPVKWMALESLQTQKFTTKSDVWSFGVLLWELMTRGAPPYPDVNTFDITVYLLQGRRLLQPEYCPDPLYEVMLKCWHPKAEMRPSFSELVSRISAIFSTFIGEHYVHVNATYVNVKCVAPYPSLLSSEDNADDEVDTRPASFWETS", "test": "Inhibition of cMET Y1230H mutant (unknown origin) autophosphorylation"}, "[22]": {"test": "Clearance in CD1 mouse at 2 mg/kg, iv", "assay_type": "ADME, organism-based", "design": "dose 2 mg/kg, route intravenous", "settings": "in vivo"}, "[23]": {"test": "Antitumor activity against human U87MG cells xenografted in nu/nu CD1 mouse model assessed as maximum tumor regression at 100 mg/kg, po bid for 14 days", "assay_type": "functional, U-87MG ATCC"}, "[24]": {"test": "Plasma concentration in human MKN45 cells xenografted in mouse at 100 mg/kg, po up to 8 hrs", "assay_type": "ADME, organism-based, MKN-45", "design": "dose 100 mg/kg, route oral"}, "[25]": {"test": "Solubility of the compound at around physiological pH", "assay_type": "physicochemical"}, "[26]": {"test": "Volume of distribution at steady state in CD1 mouse at 2 mg/kg, iv", "assay_type": "ADME, organism-based", "design": "dose 2 mg/kg, route intravenous", "settings": "in vivo, read-out: Vdss"}, "[27]": {"system": "SNU-5", "test": "Antitumor activity against human SNU5 cells xenografted in nu/nu CD1 mouse model assessed as maximum tumor regression at 100 mg/kg, po qd for 20 days"}, "[28]": {"test": "Antitumor activity against human U87MG cells xenografted in nu/nu CD1 mouse model assessed as tumor growth inhibition at 200 mg/kg, po qd for 14 days", "assay_type": "functional, U-87MG ATCC", "settings": "U-87 MG, 336 h, read-out: TGI"}, "[29]": {"system": "Mus musculus", "test": "Toxicity in human U87MG cells xenografted nu/nu CD1 mouse model assessed as body weigh loss at 100 mg/kg, po qd for 14 days", "assay_type": "organism-based, U-87MG ATCC", "design": "dose 100 mg/kg, route oral", "settings": "in vivo, 336 h"}, "[30]": {"target": "T1, Aurora kinase B", "test": "Inhibition of aurora-B in human HT-29 cells assessed as phosphorylation of histone H3 at Ser10", "assay_type": "cell-based"}, "[31]": {"system": "Salmonella typhimurium", "test": "Mutagenic activity in Salmonella typhimurium TA98 by Ames test in presence of liver S9 fraction", "assay_type": "toxicity, organism-based", "settings": "salmonella enterica subsp. enterica serovar typhimurium"}, "[32]": {"test": "Antitumor activity against human U87MG cells xenografted in nu/nu CD1 mouse model assessed as tumor growth inhibition at 100 mg/kg, po qd for 14 days", "assay_type": "functional, U-87MG ATCC", "settings": "U-87 MG, 336 h, read-out: TGI"}, "[33]": {"system": "Salmonella typhimurium", "test": "Mutagenic activity in Salmonella typhimurium TA100 by Ames test in absence of liver S9 fraction", "assay_type": "toxicity, organism-based", "settings": "salmonella enterica subsp. enterica serovar typhimurium"}, "[34]": {"system": "Mus musculus", "test": "Inhibition of MET autophosphorylation at Y1234/1235 in human MKN45 cells xenografted in mouse at 100 mg/kg, po up to 8 hrs", "assay_type": "functional", "settings": "MKN-45, 8 h"}, "[35]": {"system": "Mus musculus", "test": "Toxicity in human U87MG cells xenografted nu/nu CD1 mouse model assessed as body weigh loss at 50 mg/kg, po qd for 14 days", "assay_type": "organism-based, U-87MG ATCC", "design": "dose 50 mg/kg, route oral", "settings": "in vivo, 336 h"}, "[36]": {"test": "Permeability of the compound at pH 7.4 by PAMPA", "assay_type": "ADME", "settings": "read-out: permeability"}, "[37]": {"test": "Half life in Sprague-Dawley rat at 2 mg/kg, iv", "assay_type": "ADME, organism-based", "design": "dose 2 mg/kg, route intravenous", "settings": "in vivo"}, "[38]": {"target": "Macrophage-stimulating protein receptor (Homo sapiens, UniProt Q04912)", "sequence (Q04912 25-304 limits assumed)": "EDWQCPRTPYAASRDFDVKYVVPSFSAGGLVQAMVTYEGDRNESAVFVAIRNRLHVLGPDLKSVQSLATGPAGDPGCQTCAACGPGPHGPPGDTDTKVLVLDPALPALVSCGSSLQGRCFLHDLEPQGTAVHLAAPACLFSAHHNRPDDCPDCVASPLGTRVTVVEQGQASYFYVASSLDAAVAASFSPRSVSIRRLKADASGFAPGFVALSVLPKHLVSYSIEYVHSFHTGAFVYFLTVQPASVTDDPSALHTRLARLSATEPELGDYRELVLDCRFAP", "sequence (Q04912 310-1400 limits assumed)": "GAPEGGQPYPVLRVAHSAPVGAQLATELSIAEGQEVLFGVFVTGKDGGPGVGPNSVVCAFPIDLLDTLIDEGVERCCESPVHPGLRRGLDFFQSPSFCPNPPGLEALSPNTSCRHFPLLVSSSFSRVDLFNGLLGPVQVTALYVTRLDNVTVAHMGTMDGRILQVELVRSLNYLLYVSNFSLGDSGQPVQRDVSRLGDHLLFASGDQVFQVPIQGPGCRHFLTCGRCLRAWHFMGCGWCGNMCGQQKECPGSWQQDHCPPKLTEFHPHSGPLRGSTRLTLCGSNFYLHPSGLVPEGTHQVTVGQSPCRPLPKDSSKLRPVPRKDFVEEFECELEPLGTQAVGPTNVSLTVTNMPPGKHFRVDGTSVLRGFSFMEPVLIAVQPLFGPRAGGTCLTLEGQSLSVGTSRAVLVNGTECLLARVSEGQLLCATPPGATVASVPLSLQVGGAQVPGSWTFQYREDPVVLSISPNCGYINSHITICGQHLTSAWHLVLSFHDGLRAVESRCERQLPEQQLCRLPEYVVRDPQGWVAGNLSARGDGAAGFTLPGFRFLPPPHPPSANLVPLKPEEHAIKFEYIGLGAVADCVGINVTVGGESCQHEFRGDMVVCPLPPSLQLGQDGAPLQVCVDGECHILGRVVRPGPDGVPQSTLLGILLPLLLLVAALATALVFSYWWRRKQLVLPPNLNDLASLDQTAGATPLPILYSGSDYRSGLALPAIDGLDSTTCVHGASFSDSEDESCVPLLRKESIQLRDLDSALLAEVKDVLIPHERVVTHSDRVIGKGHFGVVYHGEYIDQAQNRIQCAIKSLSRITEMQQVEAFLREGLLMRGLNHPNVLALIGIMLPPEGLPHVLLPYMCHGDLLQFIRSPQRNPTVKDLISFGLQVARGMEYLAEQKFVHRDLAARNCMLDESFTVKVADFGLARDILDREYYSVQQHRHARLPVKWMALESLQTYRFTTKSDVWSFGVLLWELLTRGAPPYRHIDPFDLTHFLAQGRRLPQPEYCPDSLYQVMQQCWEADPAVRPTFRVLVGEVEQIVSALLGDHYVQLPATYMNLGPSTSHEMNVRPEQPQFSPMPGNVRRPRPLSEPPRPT", "test": "Inhibition of short-form RON (unknown origin) expressed in human HeLa cells assessed as phosphorylated RON levels after 4 hrs", "assay_type": "cell-based"}, "[39]": {"system": "SNU-5", "test": "Antitumor activity against human SNU5 cells xenografted in nu/nu CD1 mouse model assessed as maximum tumor regression at 50 mg/kg, po qd for 20 days"}, "[40]": {"system": "Salmonella typhimurium", "test": "Mutagenic activity in Salmonella typhimurium TA98 by Ames test in absence of liver S9 fraction", "assay_type": "toxicity, organism-based", "settings": "salmonella enterica subsp. enterica serovar typhimurium"}, "[41]": {"test": "Antitumor activity against human U87MG cells xenografted in nu/nu CD1 mouse model assessed as maximum tumor regression at 100 mg/kg, po qd for 14 days", "assay_type": "functional, U-87MG ATCC"}, "[42]": {"system": "Mus musculus", "test": "Inhibition of cMET autophosphorylation at Y1234/1235 in human MKN45 cells xenografted in nu/nu CD1 mouse at 100 mg/kg, po qd for 14 days measured after 24 hrs of last dose", "assay_type": "functional", "settings": "MKN-45"}}, "data": [{"compound": "C[C@@H](Oc1c(N)ncc2c(C3=CCN(C(N)=O)CC3)coc12)c1c(Cl)ccc(F)c1Cl", "values": [{"measurement": "Activity", "setting": "[1]", "value": 8, "unit": "%"}, {"measurement": "inhibition in vivo at 200 mg/kg", "setting": "[2]", "value": 100, "unit": "%"}, {"measurement": "solubility", "setting": "[3]", "value": 11, "unit": "µM"}, {"measurement": "Activity", "setting": "[4]", "value": 0, "unit": "%"}, {"measurement": "fraction unbound", "setting": "[5]", "value": 0.019}, {"measurement": "Activity", "setting": "[6]", "value": 5, "unit": "%"}, {"measurement": "IC50", "setting": "[7]", "value": 72, "unit": "nM"}, {"measurement": "AUC(0-t)", "setting": "[8]", "value": 6200, "unit": "ng·h/mL"}, {"measurement": "Cmax", "setting": "[9]", "value": 2500, "unit": "nM"}, {"measurement": "IC50", "setting": "[10]", "value": 130, "unit": "nM"}, {"measurement": "Activity", "setting": "[11]", "value": 0, "unit": "%"}, {"measurement": "Activity", "setting": "[12]", "value": 4, "unit": "%"}, {"measurement": "ED50", "setting": "[13]", "value": 50, "unit": "mg/kg"}, {"measurement": "inhibition in vivo at 100 mg/kg", "setting": "[14]", "value": 100, "unit": "%"}, {"measurement": "clearance", "setting": "[15]", "value": 39, "unit": "mL/min/kg"}, {"measurement": "inhibition in vivo at 100 mg/kg", "setting": "[16]", "value": 45, "unit": "%"}, {"measurement": "solubility", "setting": "[17]", "value": "> 100", "unit": "µM"}, {"measurement": "hepatic extraction ratio at 40 min", "setting": "[18]", "value": 0.7}, {"measurement": "Activity", "setting": "[19]", "value": "Non-toxic"}, {"measurement": "IC50", "setting": "[20]", "value": "> 10000", "unit": "nM"}, {"measurement": "IC50", "setting": "[21]", "value": 110, "unit": "nM"}, {"measurement": "clearance", "setting": "[22]", "value": 51, "unit": "mL/min/kg"}, {"measurement": "Activity", "setting": "[23]", "value": 22, "unit": "%"}, {"measurement": "concentration at 8 h", "setting": "[24]", "value": "> 3000", "unit": "nM"}, {"measurement": "solubility", "setting": "[25]", "value": 1, "unit": "µM"}, {"measurement": "Vd", "setting": "[26]", "value": 3.8, "unit": "L/kg"}, {"measurement": "Activity", "setting": "[27]", "value": 64, "unit": "%"}, {"measurement": "inhibition in vivo at 200 mg/kg", "setting": "[28]", "value": 94, "unit": "%"}, {"measurement": "Activity", "setting": "[29]", "value": 0, "unit": "%"}, {"measurement": "IC50", "setting": "[30]", "value": 1000, "unit": "nM"}, {"measurement": "Activity", "setting": "[31]", "value": "Non-toxic"}, {"measurement": "inhibition in vivo at 100 mg/kg", "setting": "[32]", "value": 79, "unit": "%"}, {"measurement": "Activity", "setting": "[33]", "value": "Non-toxic"}, {"measurement": "inhibition in vivo at 100 mg/kg", "setting": "[34]", "value": "> 80", "unit": "%"}, {"measurement": "Activity", "setting": "[35]", "value": 0, "unit": "%"}, {"measurement": "Papp", "setting": "[36]", "value": 359, "unit": "×10⁻⁶ cm/s"}, {"measurement": "half-life", "setting": "[37]", "value": 2, "unit": "h"}, {"measurement": "IC50", "setting": "[38]", "value": 200, "unit": "nM"}, {"measurement": "Activity", "setting": "[39]", "value": 31, "unit": "%"}, {"measurement": "Activity", "setting": "[40]", "value": "Non-toxic"}, {"measurement": "Activity", "setting": "[41]", "value": 0, "unit": "%"}, {"measurement": "inhibition in vivo at 100 mg/kg", "setting": "[42]", "value": "> 90", "unit": "%"}]}]}
